Source: patent EP4198033A1, “HETEROCYCLIC COMPOUNDS FOR THE CONTROL OF INVERTEBRATE PESTS” (priority 2021, dated 2023)

Tests used:
Assay type in all cases: in vivo
[1] = test system: Diamond back moth (Plutella xylostella); assay: Diamond back moth leaf-dip test on cabbage leaves; details: 72 h, read-out: mortality in comparison with untreated controls
Procedure: The active compound was dissolved at the desired concentration in a mixture of 1:1 (vol:vol) distilled water: acetone. Surfactant (Kinetic HV) was added at a rate of 0.01% (vol/vol). The test solution was prepared on the day of use.
Leaves of cabbage were dipped in test solution and air-dried. Treated leaves were placed in petri dishes lined with moist filter paper and inoculated with ten 3rd instar larvae. Mortality was recorded 72 hours after treatment. Feeding damages were also recorded using a scale of 0-100%.

[2] = test system: Tobacco budworm (Heliothis virescens); assay: Tobacco budworm test, insect diet with eggs in 96-well microtiter plates; details: 120 h, egg and larval mortality, 5 days, read-out: mortality in comparison with untreated controls
Procedure: For evaluating control of tobacco budworm (Heliothis virescens) the test unit consisted of 96-well-microtiter plates containing an insect diet and 15-25 H. virescens eggs.
The compounds were formulated using a solution containing 75% v/v water and 25% v/v DMSO. Different concentrations of formulated compounds were sprayed onto the insect diet at 10 µl using a custom-built micro atomizer, at two replications.
After application, microtiter plates were incubated at about 28±1°C and about 80±5 % relative humidity for 5 days. Egg and larval mortality was then visually assessed.

[3] = test system: Boll weevil (Anthonomus grandis); assay: Boll weevil test, insect diet with eggs in 96-well microtiter plates; details: 120 h, egg and larval mortality, 5 days, read-out: mortality in comparison with untreated controls
Procedure: For evaluating control of boll weevil (Anthonomus grandis) the test unit consisted of 96-well-microtiter plates containing an insect diet and 5-10 A. grandis eggs.
The compounds were formulated using a solution containing 75% v/v water and 25% v/v DMSO. Different concentrations of formulated compounds were sprayed onto the insect diet at 5 µl, using a custom-built micro atomizer, at two replications.
After application, microtiter plates were incubated at about 25±1°C and about 75±5 % relative humidity for 5 days. Egg and larval mortality was then visually assessed.

[4] = test system: Southern armyworm (Spodoptera eridania), 2nd instar larvae; assay: Southern armyworm foliar spray test on lima bean plants; details: 96 h, 4 days after treatment, read-out: mortality in comparison with untreated controls
Procedure: The active compounds were formulated by a Tecan liquid handler in 100% cyclohexanone as a 10,000-ppm solution supplied in tubes. The 10,000-ppm solution was serially diluted in 100% cyclohexanone to make interim solutions. These served as stock solutions for which final dilutions were made by the Tecan in 50% acetone:50% water (v/v) into 10 or 20ml glass vials. A nonionic surfactant (Kinetic®) was included in the solution at a volume of 0.01% (v/v). The vials were then inserted into an automated electrostatic sprayer equipped with an atomizing nozzle for application to plants/insects. Lima bean plants (variety Sieva) were grown 2 plants to a pot and selected for treatment at the 1st true leaf stage. Test solutions were sprayed onto the foliage by an automated electrostatic plant sprayer equipped with an atomizing spray nozzle. The plants were dried in the sprayer fume hood and then removed from the sprayer. Each pot was placed into perforated plastic bags with a zip closure. Ten to 11 armyworm larvae were placed into the bag and the bags zipped closed. Test plants were maintained in a growth room at about 25°C and about 20-40% relative humidity for 4 days, avoiding direct exposure to fluorescent light (14:10 light:dark photoperiod) to prevent trapping of heat inside the bags. Mortality and reduced feeding were assessed 4 days after treatment, compared to untreated control plants.

[5] = test system: Yellow fever mosquito (Aedes aegypti); assay: whole plant or invertebrate; details: 48 h, larval mortality, 2 days, read-out: mortality in comparison with untreated controls
Procedure: For evaluating control of yellow fever mosquito (Aedes aegypti) the test unit consisted of 96-well-microtiter plates containing 200µl of tap water per well and 5-15 freshly hatched A. aegypti larvae.
The active compounds were formulated using a solution containing 75% (v/v) water and 25% (v/v) DMSO. Different concentrations of formulated compounds or mixtures were sprayed onto the insect diet at 2.5µl, using a custom-built micro atomizer, at two replications.
After application, microtiter plates were incubated at 28±1 °C, 80±5 % RH for 2 days. Larval mortality was then visually assessed.

[6] = test system: Green Peach Aphid (Myzus persicae); assay: Green peach aphid systemic test, artificial diet in 96-well microtiter plates; details: 72 h, adult aphids, 3 days, read-out: mortality in comparison with untreated controls
Text: For evaluating control of green peach aphid (Myzus persicae) through systemic means the test unit consisted of 96-well-microtiter plates containing liquid artificial diet under an artificial mem brane.
The compounds were formulated using a solution containing 75% v/v water and 25% v/v DMSO. Different concentrations of formulated compounds were pipetted into the aphid diet, using a custom built pipetter, at two replications.
After application, 5-8 adult aphids were placed on the artificial membrane inside the microtiter plate wells. The aphids were then allowed to suck on the treated aphid diet and incubated at about 23±1°C and about 50±5 % relative humidity for 3 days. Aphid mortality and fecundity was then visually assessed.

CC(NC(=O)c1cc(Br)cc(C(F)(F)F)c1)c1ocnc1-c1ncc(OC(F)F)cn1 (centres unmarked) [I-1, 3-bromo-N-[1-[4-[5-(difluoromethoxy)pyrimidin-2-yl]oxazol-5-yl]ethyl]-5-(trifluoromethyl)benzamide]
≥ 75%: mortality at 300 ppm [1] | mortality at 2500 ppm [2] | mortality at 2500 ppm [3] | mortality at 300 ppm [4] | mortality at 2500 ppm [5]

CCN(C(=O)c1cc(OC(F)F)cc(C(F)(F)F)c1)C(C)c1ncoc1-c1ncccn1 (centres unmarked) [I-5, 3-(difluoromethoxy)-N-ethyl-N-[1-(5-pyrimidin-2-yloxazol-4-yl)ethyl]-5-(trifluoromethyl)benzamide]
≥ 75%: mortality at 2500 ppm [6] | mortality at 2500 ppm [3]

CC(NC(=O)c1cc(OC(F)F)cc(C(F)(F)F)c1)c1ncoc1-c1ncccn1 (centres unmarked) [I-3, 3-(difluoromethoxy)-N-[1-(5-pyrimidin-2-yloxazol-4-yl)ethyl]-5-(trifluoromethyl)benzamide]
≥ 75%: mortality at 2500 ppm [6] | mortality at 2500 ppm [3] | mortality at 300 ppm [4] | mortality at 2500 ppm [5]
